Where two headings read alike, the source gives them in different places.

The target in experiment [1] is RET (Homo sapiens (Human), UniProt P07949). Description: RET enzyme assay (CisBio HTRF kinEASE). Type of experiment: biochemical. The conditions noted are these: for IC50: ATP at Km. For orientation: Time-resolved FRET reads energy transfer from a long-lived donor to a nearby acceptor.
Experiment [2] deals with KDR (Homo sapiens (Human), UniProt P35968). In words: KDR enzyme assay (CisBio HTRF kinEASE). Type of experiment: biochemical. Particulars: ATP at Km.
Sequence of KDR (P35968 20-1356): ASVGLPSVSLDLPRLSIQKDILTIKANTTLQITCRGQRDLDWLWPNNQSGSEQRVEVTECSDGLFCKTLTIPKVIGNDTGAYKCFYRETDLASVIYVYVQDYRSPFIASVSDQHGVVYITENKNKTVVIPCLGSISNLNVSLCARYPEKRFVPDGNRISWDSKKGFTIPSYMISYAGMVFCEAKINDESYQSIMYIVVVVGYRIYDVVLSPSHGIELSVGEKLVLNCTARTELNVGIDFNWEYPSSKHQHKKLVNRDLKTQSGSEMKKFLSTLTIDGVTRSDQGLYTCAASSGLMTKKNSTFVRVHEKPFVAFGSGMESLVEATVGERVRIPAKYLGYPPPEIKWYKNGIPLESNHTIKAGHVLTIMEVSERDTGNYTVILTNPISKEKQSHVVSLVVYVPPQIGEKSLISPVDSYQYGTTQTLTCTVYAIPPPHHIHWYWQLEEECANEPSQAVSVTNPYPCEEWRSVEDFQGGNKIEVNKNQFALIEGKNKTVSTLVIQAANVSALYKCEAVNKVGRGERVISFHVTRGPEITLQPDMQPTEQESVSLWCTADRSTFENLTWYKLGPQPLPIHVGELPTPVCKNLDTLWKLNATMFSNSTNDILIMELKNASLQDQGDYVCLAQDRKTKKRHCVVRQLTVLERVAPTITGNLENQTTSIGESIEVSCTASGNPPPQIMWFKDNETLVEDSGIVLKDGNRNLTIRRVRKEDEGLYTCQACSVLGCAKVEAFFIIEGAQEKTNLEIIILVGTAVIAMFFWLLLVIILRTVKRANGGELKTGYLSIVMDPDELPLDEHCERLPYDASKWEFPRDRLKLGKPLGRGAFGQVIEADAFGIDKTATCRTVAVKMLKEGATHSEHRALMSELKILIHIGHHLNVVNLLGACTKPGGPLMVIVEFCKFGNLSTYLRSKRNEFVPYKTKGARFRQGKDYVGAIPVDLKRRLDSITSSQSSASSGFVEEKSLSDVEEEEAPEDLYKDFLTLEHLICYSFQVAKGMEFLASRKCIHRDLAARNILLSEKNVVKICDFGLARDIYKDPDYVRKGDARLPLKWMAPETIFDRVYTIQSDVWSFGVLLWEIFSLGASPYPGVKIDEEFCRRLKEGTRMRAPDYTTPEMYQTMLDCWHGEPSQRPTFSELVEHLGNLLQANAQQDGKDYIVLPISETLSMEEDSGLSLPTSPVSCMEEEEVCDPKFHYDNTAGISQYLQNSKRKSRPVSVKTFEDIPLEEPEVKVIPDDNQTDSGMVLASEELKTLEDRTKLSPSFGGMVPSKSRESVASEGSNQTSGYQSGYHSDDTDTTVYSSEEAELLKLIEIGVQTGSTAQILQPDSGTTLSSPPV
Experiment [3] has as its target RET^V804M (Homo sapiens (Human), UniProt P07949, V804M). Description: RET^V804M enzyme assay. Type of experiment: biochemical.
Experiment [4] has as its target BaF3 cell lines expressing KIF5B-RET (Homo sapiens, UniProt P07949). Type of experiment: cell-based. Particulars: read-out: RET Cell IC50.
Procedure: (§1) The system originally developed by Daley and Baltimore^16 was used, whereby IL3-dependent BaF3 cells are modified to express an activated recombinant kinase. Following removal of IL3, the modified cells are dependent on the activity of the recombinant kinase for survival and proliferation. […] Following incubation of the cells for 48 hours at 37° C. in a humidified 5% CO2 atmosphere, viability was determined by addition of 10 μL CellTiter-Glo reagent (Promega) and measurement of luminescence.
Experiment [5] relates to Non-modified BaF3 cells (WT). Description: BaF3 cell assay, non-modified (WT) cells with IL3. Particulars: Mus musculus, BaF3, 48 h, read-out: BaF3 IC50.
Procedure: as §1
The subject of experiment [6] is RET^V804M Cell. Description: BaF3 cell assay, RET^V804M (CellTiter-Glo viability). Particulars: Mus musculus, RET^V804M cells, 48 hours. The class given is cell-based.
Procedure: as §1
Experiment [7] deals with BaF3 cell lines expressing KDR. In words: BaF3 cell assay, KDR (CellTiter-Glo viability). Particulars: Mus musculus, BaF3 cells expressing KDR, 48 hours. The class given is cell-based. A general note: Cellular ATP, detected with luciferase, serves as a proxy for viable cell number.
Procedure: as §1

Sequence of BaF3 cell lines expressing KIF5B-RET (P07949 29-1114 limits assumed, change not shown): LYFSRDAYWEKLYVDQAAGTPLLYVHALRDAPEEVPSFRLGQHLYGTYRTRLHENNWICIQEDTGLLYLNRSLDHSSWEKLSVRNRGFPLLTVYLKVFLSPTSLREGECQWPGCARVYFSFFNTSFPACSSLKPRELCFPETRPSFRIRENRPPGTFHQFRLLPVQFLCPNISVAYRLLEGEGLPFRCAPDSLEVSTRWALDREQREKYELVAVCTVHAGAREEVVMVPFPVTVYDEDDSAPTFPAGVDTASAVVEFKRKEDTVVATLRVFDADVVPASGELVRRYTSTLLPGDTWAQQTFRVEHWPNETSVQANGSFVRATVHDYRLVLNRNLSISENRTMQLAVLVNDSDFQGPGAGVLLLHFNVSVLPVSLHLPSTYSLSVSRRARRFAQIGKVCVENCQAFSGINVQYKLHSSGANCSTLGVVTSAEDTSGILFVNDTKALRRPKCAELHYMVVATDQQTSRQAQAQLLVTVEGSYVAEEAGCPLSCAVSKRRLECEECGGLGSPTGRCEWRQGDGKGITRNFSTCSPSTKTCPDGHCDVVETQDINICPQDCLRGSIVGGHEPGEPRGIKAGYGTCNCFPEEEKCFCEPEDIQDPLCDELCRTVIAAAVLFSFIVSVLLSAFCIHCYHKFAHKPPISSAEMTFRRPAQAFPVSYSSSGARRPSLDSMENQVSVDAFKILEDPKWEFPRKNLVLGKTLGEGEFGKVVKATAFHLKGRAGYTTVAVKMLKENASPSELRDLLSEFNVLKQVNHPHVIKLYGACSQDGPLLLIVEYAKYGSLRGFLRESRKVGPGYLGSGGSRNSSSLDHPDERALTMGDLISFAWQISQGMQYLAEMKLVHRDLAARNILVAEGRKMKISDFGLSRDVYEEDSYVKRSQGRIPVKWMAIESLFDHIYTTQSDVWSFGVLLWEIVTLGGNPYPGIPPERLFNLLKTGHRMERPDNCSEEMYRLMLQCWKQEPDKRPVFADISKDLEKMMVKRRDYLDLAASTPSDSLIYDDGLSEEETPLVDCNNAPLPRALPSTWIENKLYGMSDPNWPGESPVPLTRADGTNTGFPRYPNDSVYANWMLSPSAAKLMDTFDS
Sequence of RET (P07949 29-1114): as the sequence (P07949 29-1114 limits assumed, change not shown) above
Sequence of RET^V804M (P07949 29-1114 V804M): as the sequence (P07949 29-1114 limits assumed, change not shown) above, with V776M counted along it

In the case of `CC(C)(C)n1nc(-c2cc3ncccc3[nH]2)c2c(N)ncnc21` [1-tert-butyl-3-(1H-pyrrolo[3,2-b]pyridin-2-yl)pyrazolo[3,4-d]pyrimidin-4-amine], the “desired activity in the assays described in the Examples section” value (“desired activity in the assays described” below) in experiment [1] is reported as “did not exhibit the desired activity”.
Still for that read-out and setting: in the case of `Nc1ncnc2c1c(-c1[nH]c3ncccc3c1Cl)nn2CC(=O)O` [2-(4-amino-3-(3-chloro-1H-pyrrolo[2,3-b]pyridin-2-yl)-1H-pyrazolo[3,4-d]pyrimidin-1-yl)acetic acid] it was “did not exhibit the desired activity”; in that of `CC(C)CCn1nc(-c2[nH]c3ccccc3c2Cl)c2c(N)ncnc21` [3-(3-Chloro-1H-indol-2-yl)-1-isopentyl-1H-pyrazolo[3,4-d]pyrimidin-4-amine], “did not exhibit the desired activity”.
In the case of `Nc1ncnc2c1c(-c1[nH]c3ccccc3c1Cl)nn2CC1CCNC1` (centres unmarked) [3-(3-chloro-1H-indol-2-yl)-1-(pyrrolidin-3-ylmethyl)-1H-pyrazolo[3,4-d]pyrimidin-4-amine], in experiment [1], the “desired activity in the assays described” value is “did not exhibit the desired activity”.
As for `CS(=O)(=O)N1CCC(n2nc(-c3[nH]c4ccccc4c3Cl)c3c(N)ncnc32)CC1` [Example 4, 3-(3-Chloro-1H-indol-2-yl)-1-(1-methylsulfonyl-4-piperidyl)pyrazolo[3,4-d]pyrimidin-4-amine], the concentration for half-maximal inhibition (IC50) (commonly the concentration that gives 50% inhibition) in experiment [2] was more than 30000 nM.
The same measure, in the same setting: the figure for `CC(C)(C)OC(=O)N[C@H]1CC[C@@H](n2nc(-c3cc4cccnc4[nH]3)c3c(N)ncnc32)CC1` [Example 27, tert-Butyl N-[cis-4-(4-amino-3-{1H-pyrrolo[2,3-b]pyridin-2-yl}-1H-pyrazolo[3,4-d]pyrimidin-1-yl)cyclohexyl]carbamate] is more than 30000 nM.
`CC(C)(C)OC(=O)N[C@H]1CC[C@H](n2nc(-c3cc4cccnc4[nH]3)c3c(N)ncnc32)CC1` [Example 28, tert-Butyl (trans-4-(4-amino-3-(1H-pyrrolo[2,3-b]pyridin-2-yl)-1H-pyrazolo[3,4-d]pyrimidin-1-yl)cyclohexyl)carbamate]: in experiment [2], the half-maximal inhibitory concentration (IC50) was more than 30000 nM.
In experiment [2], `Nc1ncnc2c1c(-c1cc3cccnc3[nH]1)nn2[C@H]1CC[C@H](NC(=O)C2CC2)CC1` [Example 36, N-(trans-4-(4-Amino-3-(1H-pyrrolo[2,3-b]pyridin-2-yl)-1H-pyrazolo[3,4-d]pyrimidin-1-yl)cyclohexyl)cyclopropanecarboxamide] came in with an IC50 of more than 30000 nM.
For `CC(C)n1nc(-c2cc3ccccc3[nH]2)c2c(N)ncnc21` [Example 44, 3-(1H-Indol-2-yl)-1-isopropyl-pyrazolo[3,4-d]pyrimidin-4-amine], the IC50 was 4570 nM in experiment [2]; 1870 nM in experiment [3]; 83.6 nM in experiment [4] (BaF3 cells expressing KIF5B-RET, 48 hours, CellTiter-Glo); 3630 nM in experiment [5]; 18.7 nM in experiment [1]; 1470 nM in experiment [6]. Further, the IC50 in experiment [7] stood at 2770 nM.
As to `Cn1nc(-c2[nH]c3ncccc3c2Cl)c2c(N)ncnc21` [Example 65, 3-(3-Chloro-1H-pyrrolo[2,3-b]pyridin-2-yl)-1-methyl-pyrazolo[3,4-d]pyrimidin-4-amine], the IC50 was more than 30000 nM in experiment [3], 1010 nM in experiment [4] and more than 30000 nM in experiment [1]. In addition, the “desired activity in the assays described” value in experiment [1] was “did not exhibit the desired activity”.
With `Nc1ncnc2c1c(-c1[nH]c3ncccc3c1Cl)nn2C1CCCCC1` [Example 67, 3-(3-Chloro-1H-pyrrolo[2,3-b]pyridin-2-yl)-1-cyclohexyl-pyrazolo[3,4-d]pyrimidin-4-amine], the results for the IC50 in experiment [3], in experiment [4] and in experiment [1] were more than 30000 nM, 68.7 nM and more than 30000 nM, respectively.
In turn, `CN(C)C1CCN(CCn2nc(-c3[nH]c4ncccc4c3Cl)c3c(N)ncnc32)CC1` [Example 77, 3-(3-Chloro-1H-pyrrolo[2,3-b]pyridin-2-yl)-1-(2-(4-(dimethylamino)piperidin-1-yl)ethyl)-1H-pyrazolo[3,4-d]pyrimidin-4-amine] gave an IC50 in experiment [2] of more than 30000 nM.

Source of the values: patent publication US10844067B2, “Heterocyclic compounds as RET kinase inhibitors” (Cancer Research Technology Limited, priority 2016, dated 2020).
